Patent US20180148390A1, “METHOD AND COMPOSITION FOR RETAINING NUTRIENTS IN SOIL AT PLANTING SITES” (WaterScience, Inc., priority 2016, published 2018)
Values after ≈ are worked out from the molar mass of the structure shown.

Assays:
physchem = settings: for solubility: 25 °C, pH 7, water
From the text: High solubility of naturally occurring positively charged amino acids are subject to runoff, which may be problematic. However, positively charged amino acids are better retained than negatively charged nitrate, sulfate, and phosphate which are poorly retained in the negatively charged soils.

[1] = Column retention of amino acid on WS A201; format: physicochemical; settings: for amount complexed and retained by the WS A 201 / amount passed through the column: 100 ml solution on 89 ml WS A201 column at 1.5 ml/min, displaced with 100 ml deionized water; for converted to cationic charge: from WS A201 column retention
Method: The modified alanine solution was added to 100 ml burette with 9 mm diameter at the rate of 1.5 ml/min. The column was filled with 89 ml of WS A201 (WaterScience, Inc., Peoria, Ill.) which has an anion exchange capacity of 2 EG Kg. To the burette was added 100 ml deionized water to displace the modified alanine. […] The 100 ml of deionized water containing 890.9 mg of unmodified alanine was added to another column containing fresh WS A 201. To the burette was also added 100 ml of deionized water to displace the unmodified alanine solution from the column.
The column was filled with 89 ml of WS A 201 which has an anion exchange capacity of 2 EG Kg. […] The 100 ml of deionized water containing 1471 mg of unmodified glutamic acid was added to another column containing fresh WS A 201. To the burette column was also added 100 ml of deionized water to displace the unmodified glutamic acid solution from the column.
The 1% modified leucine acid solution was added to 100 ml burette with 9 mm diameter at the rate of 1.5 ml/min. The column was filled with 89 ml of WS A 201 which has an anion exchange capacity of 2 EG Kg. To the burette was added 100 ml deionized water to displace the modified leucine. […] The 100 ml of deionized water containing 1312 mg of unmodified leucine was added to another column containing fresh WS A 201. To the burette was also added 100 ml of deionized water to displace the unmodified leucine solution from the column.

[2] = Electro-potential of amino acid in deionized water against a hydrogen electrode; format: physicochemical; settings: amino acid in 100 ml deionized water, electro-potential meter against hydrogen electrode
Method: After drying, 890.9 mg of the modified alanine (i.e., protonated alanine) was added to 100 ml of deionized water to form a modified alanine solution. The electro-potential of the modified alanine water mixture was measured with an electro-potential meter against a hydrogen electrode. […] 890.9 mg sample of unmodified alanine was added to 100 ml of deionized water.
890.9 mg sample of unmodified glutamic acid was added to 100 ml of deionized water.
After drying, 1902 mg of the modified leucine was added to 100 ml of deionized water to form a modified leucine solution. The electro-potential of the modified leucine water mixture was measured with an electro-potential meter against a Hydrogen electrode. […] 1312 mg sample of unmodified leucine was added to 100 ml of deionized water.

| amount complexed and retained by the WS A 201 [1] | amount passed through the column [1] | converted to cationic charge [1] | electro-potential [2] | Compound | solubility (physchem) | reduction of solubility by modification with a weak base to pH 10 (physchem; pH 10) |
| --- | --- | --- | --- | --- | --- | --- |
| – | – | – | – | N[C@@H](Cc1c[nH]cn1)C(=O)O [histidine] | 41.9 mg/mL (≈ 270 mM) | – |
| – | – | – | – | NCCCC[C@H](N)C(=O)O [lysine] | 1000 mg/mL (≈ 6840 mM) | 89% |
| 845.8 mg | 45.1 mg | 94.9% | 177 mV | C[C@H](N)C(=O)O [modified alanine, Protonated alanine] | – | – |
| 1246 mg | 66 mg | 95% | 197 mV | CC(CNC(=N)N)C[C@H](N)C(=O)O (some centres unmarked) [modified leucine, Guanidine modified leucine] | – | – |
| 37.3 mg | 853.6 mg | – | – | C[C@H](N)C(=O)O [unmodified alanine, alanine, reference compound] | – | – |
| 79 mg | 1392 mg | – | – | N[C@@H](CCC(=O)O)C(=O)O [unmodified glutamic acid, glutamic acid, reference compound] | – | – |
| 41 mg | 1271 mg | – | – | CC(C)C[C@H](N)C(=O)O [unmodified leucine, leucine, reference compound] | – | – |
